Data published in paper PMC12367851, “In vitro CB1 receptor activity of halogenated indazole synthetic cannabinoid receptor agonists” (Archives of Toxicology, 2025).
Where two headings read alike, the source gives them in different places.

What was measured:
human CB1 receptor = human CB1 receptor (Homo sapiens, UniProt P21554); assay: AequoScreen CB1 assay (intracellular Ca2+ release, CHO-K1 cells, apoaequorin/Gα16); details: for Emax: CHO-K1, read-out: Efficacy (% of JWH-018) Emax; for Efficacy (Emax) Mean Diff: Brown-Forsythe and Welch ANOVA; for fold difference of each other (potency): brominated SCRAs with pent-4-enyl, butyl and pentyl tails; for fold less potent than the butyl (ADB-5′Br-BUTINACA): EC50 ratio, brominated ADB SCRAs with different tails
CB1 receptor [1] = target: CB1 receptor; design: method as in Deventer et al. [2023b]; details: AequoScreen / Ca2+ release assay, ref Deventer et al. [2023b], cited from earlier work
CB1 receptor [2] = details: β-arrestin 2 recruitment, cited from earlier work
[3] = Compound 1 vs Compound 2 = AB-5’Cl-BUTINACA
[4] = Compound 1 vs Compound 2 = ADB-5’Br-BUTINACA
[5] = Compound 1 vs Compound 2 = MDMB-5’Br-BUTINACA
[6] = Compound 1 vs Compound 2 = ADB-5’Cl-BUTINACA
[7] = Compound 1 vs Compound 2 = MDMB-5’Cl-BUTINACA
[8] = Compound 1 vs Compound 2 = ADB-5’F-BUTINACA
[9] = Compound 1 vs Compound 2 = MDMB-5’F-BUTINACA
[10] = Compound 1 vs Compound 2 = ADB-4en-5’Br-PINACA
[11] = Compound 1 vs Compound 2 = ADB-5’Br-FUBINACA
[12] = Compound 1 vs Compound 2 = ADB-5’Br-PINACA
[13] = Compound 1 vs Compound 2 = ADB-BUTINACA
[14] = EC50 ratio vs non-halogenated analog ADB-BUTINACA
[15] = ref Deventer et al. [2023b], read-out: EC50

Sequence of human CB1 receptor (P21554 whole entry): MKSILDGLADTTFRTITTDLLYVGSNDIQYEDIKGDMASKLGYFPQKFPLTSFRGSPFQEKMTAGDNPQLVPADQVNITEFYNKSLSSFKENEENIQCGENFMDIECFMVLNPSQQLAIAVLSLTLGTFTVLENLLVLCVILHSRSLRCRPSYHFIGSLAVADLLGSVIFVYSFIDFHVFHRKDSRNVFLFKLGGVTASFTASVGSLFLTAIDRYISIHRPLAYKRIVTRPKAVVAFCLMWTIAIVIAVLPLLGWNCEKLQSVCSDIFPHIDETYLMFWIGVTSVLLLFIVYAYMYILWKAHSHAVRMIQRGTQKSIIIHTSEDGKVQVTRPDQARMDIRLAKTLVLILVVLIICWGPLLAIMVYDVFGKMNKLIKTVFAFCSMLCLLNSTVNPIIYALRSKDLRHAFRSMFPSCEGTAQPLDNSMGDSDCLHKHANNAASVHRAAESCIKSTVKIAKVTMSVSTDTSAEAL

In the case of `CCCCn1nc(C(=O)NC(C(N)=O)C(C)C)c2cc(Br)ccc21` (centres unmarked) [AB-5′Br-BUTINACA], the EC50 (human CB1 receptor) is reported as 44.6 nM, the Emax (human CB1 receptor) is reported as 115% and the “Efficacy (Emax) Mean Diff” value (human CB1 receptor; [3]) is reported as 2.92. For the same molecule, the “Efficacy (Emax) Mean Diff” value (human CB1 receptor; Compound 1 vs Compound 2 = AB-5’F-BUTINACA) was 7.90, the “Efficacy (Emax) Mean Diff” value (human CB1 receptor; [4]) was 5.08 and the “Efficacy (Emax) Mean Diff” value (human CB1 receptor; [5]) was 1.26. For the same molecule, the “Efficacy (Emax) Mean Diff” value (human CB1 receptor; Compound 1 vs Compound 2 = MMB-5’Br-BUTINACA) was 9.47.
In the case of `CCCCn1nc(C(=O)NC(C(N)=O)C(C)C)c2cc(Cl)ccc21` (centres unmarked) [AB-5′Cl-BUTINACA], the EC50 (human CB1 receptor) is reported as 57.7 nM, the Emax (human CB1 receptor) is reported as 112% and the “Efficacy (Emax) Mean Diff” value (human CB1 receptor; [6]) is reported as -0.67. The “Efficacy (Emax) Mean Diff” value (human CB1 receptor; [7]) was 2.14 and the “Efficacy (Emax) Mean Diff” value (human CB1 receptor; Compound 1 vs Compound 2 = MMB-5’Cl-BUTINACA) was 2.74.
For `CCCCn1nc(C(=O)NC(C(N)=O)C(C)C)c2cc(F)ccc21` (centres unmarked) [AB-5′F-BUTINACA], the EC50 (human CB1 receptor) was 18.7 nM, the Emax (human CB1 receptor) was 107% and the “Efficacy (Emax) Mean Diff” value (human CB1 receptor; [3]) was -4.99. The “Efficacy (Emax) Mean Diff” value (human CB1 receptor; [8]) was -6.01, the “Efficacy (Emax) Mean Diff” value (human CB1 receptor; [9]) was -4.12 and the “Efficacy (Emax) Mean Diff” value (human CB1 receptor; Compound 1 vs Compound 2 = MMB-5’F-BUTINACA) was 0.24.
With `C=CCCCn1nc(C(=O)NC(C(N)=O)C(C)(C)C)c2cc(Br)ccc21` (centres unmarked) [ADB-4en-5′Br-PINACA, N-(1-amino-3,3-dimethyl-1-oxobutan-2-yl)−5-bromo-1-(pent-4-en-1-yl)−1H-indazole-3-carboxamide] the EC50 (human CB1 receptor) was 14.2 nM, the Emax (human CB1 receptor) was 111% and the “Efficacy (Emax) Mean Diff” value (human CB1 receptor; Compound 1 vs Compound 2 = MDMB-4en-5’Br-PINACA (also printed MDMB-5’Br-4en-PINACA)) was -8.94. The “fold difference of each other (potency)” value (human CB1 receptor) was ≤ 1.4 fold.
For `CCCCn1nc(C(=O)NC(C(N)=O)C(C)(C)C)c2cc(Br)ccc21` (centres unmarked) [ADB-5′Br-BUTINACA, N-[1-amino-3,3-dimethyl-1-oxobutan-2-yl]−5-bromo-1-butyl-1H-indazole-3-carboxamide], the EC50 (human CB1 receptor) was 18 nM, the Emax (human CB1 receptor) was 110% and the “Efficacy (Emax) Mean Diff” value (human CB1 receptor; [10]) was -1.26. The “Efficacy (Emax) Mean Diff” value (human CB1 receptor; [11]) was -2.30, the “Efficacy (Emax) Mean Diff” value (human CB1 receptor; [12]) was 1.84 and the “Efficacy (Emax) Mean Diff” value (human CB1 receptor; [6]) was -2.84. The “Efficacy (Emax) Mean Diff” value (human CB1 receptor; [8]) was -3.19, the “Efficacy (Emax) Mean Diff” value (human CB1 receptor; [13]) was -15.66 and the “Efficacy (Emax) Mean Diff” value (human CB1 receptor; [5]) was -3.82. For the same molecule, the “fold more potent than ADB-BUTINACA” value (human CB1 receptor; [14]) was 1.2 fold, the “fold difference of each other (potency)” value (human CB1 receptor) was ≤ 1.4 fold and the EC50 (CB1 receptor [1]; read-out: EC50) was 12.5 nM. For the same molecule, the EC50 (CB1 receptor [2]; [15]) was 82.1 nM.
In the case of `CC(C)(C)C(NC(=O)c1nn(Cc2ccc(F)cc2)c2ccc(Br)cc12)C(N)=O` (centres unmarked) [ADB-5′Br-FUBINACA], the EC50 (human CB1 receptor) is reported as 42.1 nM, the Emax (human CB1 receptor) is reported as 112% and the “Efficacy (Emax) Mean Diff” value (human CB1 receptor; [10]) is reported as 1.04. The “Efficacy (Emax) Mean Diff” value (human CB1 receptor; [12]) was 4.13 and the “fold less potent than the butyl (ADB-5′Br-BUTINACA)” value (human CB1 receptor) was 2.3 fold.
For `CC(C)(C)C(NC(=O)c1n[nH]c2ccc(Br)cc12)C(N)=O` (centres unmarked) [ADB-5′Br-INACA, N-[1-amino-3,3-dimethyl-1-oxobutan-2-yl]−5-bromo-1H-indazole-3-carboxamide], the EC50 (human CB1 receptor) was 2290 nM, the Emax (human CB1 receptor) was 111% and the “Efficacy (Emax) Mean Diff” value (human CB1 receptor; [10]) was -0.21. The “Efficacy (Emax) Mean Diff” value (human CB1 receptor; [4]) was 1.04, the “Efficacy (Emax) Mean Diff” value (human CB1 receptor; [11]) was -1.25 and the “Efficacy (Emax) Mean Diff” value (human CB1 receptor; [12]) was 2.88. For the same molecule, the “fold weaker in potency than JWH-018” value (human CB1 receptor; EC50 ratio vs JWH-018) was 100 fold and the “fold less potent than the butyl (ADB-5′Br-BUTINACA)” value (human CB1 receptor) was 127 fold.
For `CCCCCn1nc(C(=O)NC(C(N)=O)C(C)(C)C)c2cc(Br)ccc21` (centres unmarked) [ADB-5′Br-PINACA, N-(1-amino-3,3-dimethyl-1-oxobutan-2-yl)−5-bromo-1-pentyl-1H-indazole-3-carboxamide], the EC50 (human CB1 receptor) was 19.8 nM, the Emax (human CB1 receptor) was 108% and the “Efficacy (Emax) Mean Diff” value (human CB1 receptor; [10]) was -3.10. For the same molecule, the “fold difference of each other (potency)” value (human CB1 receptor) was ≤ 1.4 fold.
In the case of `CCCCn1nc(C(=O)NC(C(N)=O)C(C)(C)C)c2cc(Cl)ccc21` (centres unmarked) [ADB-5′Cl-BUTINACA], the EC50 (human CB1 receptor) is reported as 30.1 nM, the Emax (human CB1 receptor) is reported as 113% and the “Efficacy (Emax) Mean Diff” value (human CB1 receptor; [13]) is reported as -12.82. The “Efficacy (Emax) Mean Diff” value (human CB1 receptor; [7]) was 2.80 and the “fold less potent than ADB-BUTINACA” value (human CB1 receptor; [14]) was 1.4 fold.
For `CCCCn1nc(C(=O)NC(C(N)=O)C(C)(C)C)c2cc(F)ccc21` (centres unmarked) [ADB-5′F-BUTINACA], the EC50 (human CB1 receptor) was 14.4 nM, the Emax (human CB1 receptor) was 113% and the “Efficacy (Emax) Mean Diff” value (human CB1 receptor; [6]) was 0.36. For the same molecule, the “Efficacy (Emax) Mean Diff” value (human CB1 receptor; [13]) was -12.47, the “Efficacy (Emax) Mean Diff” value (human CB1 receptor; [9]) was 1.89 and the “fold more potent than ADB-BUTINACA” value (human CB1 receptor; [14]) was 1.5 fold. For the same molecule, the EC50 (CB1 receptor [1]; read-out: EC50) was 18.3 nM and the EC50 (CB1 receptor [2]; [15]) was 28.8 nM.
In the case of `CCCCn1nc(C(=O)NC(C(N)=O)C(C)(C)C)c2ccccc21` (centres unmarked) [ADB-BUTINACA, reference compound], the EC50 (human CB1 receptor) is listed as 21.5 nM, the Emax (human CB1 receptor) is listed as 126% and the EC50 (CB1 receptor [1]; read-out: EC50) is listed as 11.5 nM. The EC50 (CB1 receptor [2]; ref Sparkes et al. [2022], read-out: EC50) was 7.72 nM.
In the case of `CC(C)(C)[C@H](NC(=O)c1n[nH]c2ccccc12)C(N)=O` [ADB-INACA, reference compound], the EC50 (CB1 receptor [1]) is given as “did not reach saturation” and the EC50 (CB1 receptor [2]; ref Deventer et al. [2023b]) is given as “did not reach saturation”.
